Test results from US20040133938A1, “Use of lipoic acid in plant culture media” (priority 2002, published 2004).

Test system: cotton hypocotyl explants
Assay: Cotton transformation: embryogenic callus formation, lipoic acid in UMSEL media
Format: cell-based
Details: average from 3 experiments
Method: Cotton seed was washed in 2 teaspoons of detergent in 700-800 mL of sterile water for 10 minutes. Seed was then soaked in fungicide solution (0.6 g benlate, 0.6 g captan per 100 mL sterile water) for 10 min, drained, but not rinsed. Seed was imbibed for 30 minutes in 800 mL of 50% Clorox with 3 drops of Tween-20 and then rinsed 3 times with sterile water. Seed was spread in a sterile phytatray containing 1/2 MS plus 1% glucose media at a density of approximately 20 seeds per tray. Seeds were germinated in the dark at 28° C. for 7-10 days.
Agrobacterium was prepared by streaking a solid LBssck plate from frozen stock and incubating at 28° C. for 2 days. Two mL of liquid LBssck was inoculated with a single colony from the plate and grown overnight at 28° C. Culture is diluted 1:10 with fresh LBssck and cultured overnight at 28° C. The cells were spun down, the supernatant was poured off, cells were washed with MSO media and then resuspended in 20 mL of MSO.
Explants were harvested by cutting off the cotyledons and then making a cut approximately 4 to 6 cm below the cotyledon. Hypocotyl sections were placed in MSO media and then cut into 0.5 to 1 cm pieces.
Twenty mL of Agrobacterium broth was added to 100 to 500 cut explant sections and allowed to soak for 20 minutes. Explants were moved to co-culture medium (TrCO; see media descriptions below), covered with a plastic bag and co-cultured at room temperature for 2 days. After co-culture, explants were moved to UMSEL (1) media (with kanamycin or glyphosate selection), parafilmed and cultured in the light ( 16/8 photoperiod) at 28° C. for 4 weeks. Tissue was then transferred to fresh UMSEL (2) media containing selection in the same culture conditions for an additional 4 weeks.
Independent calli that had formed were then moved to UMO(1) containing selection, parafilmed and cultured in the dark at 28° C. for 8 weeks. After 8 weeks, tissue was transferred to fresh UMO(2) containing selection, parafilmed, and cultured in the dark for an additional 8 weeks. Good embryogenic callus was moved to TRP embryo maturation media, parafilmed and cultured in the dark at 28° C. Embryogenic callus was subcultured to fresh TRP media every 4 weeks until somatic embryos formed and were moved to SHSU embryo germination media. Once on parafilmed SHSU plates, the shoots were placed in the light at 28° C. and subcultured every four weeks until roots began to form. When healthy roots and leaves were present, the shoots were moved to SHSU media in sundae cups and eventually to soil.

[1] = 5 μM lipoic acid for 8 weeks in UMSEL media
[2] = 10 μM lipoic acid for 8 weeks in UMSEL media
[3] = 50 μM lipoic acid for 8 weeks in UMSEL media
[4] = 100 μM lipoic acid for 8 weeks in UMSEL media

## O=C(O)CCCCC1CCSS1 (centres unmarked) [lipoic acid, 1,2-dithiolane-3-pentanoic acid]
[1]
  Frequency (%) of embryogenic callus formation: 49.4%
  Putative embryogenic calli: 132
[2]
  Frequency (%) of embryogenic callus formation: 31.4%
  Putative embryogenic calli: 88
[3]
  Frequency (%) of embryogenic callus formation: 61.2%
  Putative embryogenic calli: 120
[4]
  Frequency (%) of embryogenic callus formation: 56.6%
  Putative embryogenic calli: 107
